Patent publication US20230365582A1, “NOVEL COMPOUNDS HAVING INHIBITORY ACTIVITY ON PROSTAGLANDIN E2 RECEPTOR AND USES THEREOF” (KANAPH THERAPEUTICS INC., priority 2020, published 2023)

How the values were obtained:
hEP2 = target: T1, hEP2 (Homo sapiens, UniProt P43116); assay: hEP2 cAMP assay; type: cell-based; conditions: HEK293 cells overexpressing hEP2; PGE2 agonist 400 pM; graded per Table 21; read-out: IC50 (nM) EP2 cAMP
T1 construct: expressed in transfected cells; host or cells: HEK293
Protocol: (§1) HEK293 cells overexpressing hEP2 were cultured in growth medium (GM: MEM (Gibco™, 11095080)/10% HI FBS (Gibco™, 10082147)/1% penicillin/streptomycin). Before the experiment, the growth medium was removed, and starvation medium (HBSS (Gibco™, 14025076)/10% GM) was added. Thereafter, the cells were incubated for 4 hours. The HEK293 cells harboring hEP2 were detached from the culture dish with a non-enzymatic cell dissociation buffer (Gibco™, 15040066). The cells were resuspended in assay buffer (AB: HBSS, 0.1% BSA stabilizer, 0.5 mM IBMX, 5 mM HEPES).
(§2) 1,000 cells in 5 μL of AB were seeded per well in a 384 well plate (Corning™, 3570), and stock solutions of test compounds were prepared at a concentration of 1 mM in DMSO and serially diluted in DMSO to the concentration required for the inhibition dose response curve (test concentration range of 10 μM-0.001 nM). PGE2 (Sigma, P0409, stock solution: 1 μM) was used as an agonist at a final concentration of 400 pM corresponding to EC50-80. 2.5 μL of the diluted compound and 2.5 μL of PGE2 (400 pM final concentration) were transferred to the assay plate, and then the plate was incubated at room temperature for 12 minutes.
(§3) 5 μL of each donor (Eu-cAMP tracer) and acceptor (ULight-anti-cAMP) was added, and the plate was incubated in the dark for 1 hour at room temperature, and then a Varioskan LUX multimode microplate reader was used to obtain the results (excitation: 334 nm, emission: 615 and 665 nm). The resulting FRET fluorescence value (665 nm/615 nm*10000) was converted and then calculated as a percentage of cAMP relative to the DMSO control value. IC50 values and curves were generated with GraphPad Prism software using log (inhibitor) versus response-variable slopes (4 parameters), and the median of multiple experiments was taken as the experiment result.

hEP4 = target: T2, hEP4 (Homo sapiens, UniProt P35408); assay: hEP4 cAMP assay; type: cell-based; conditions: HEK293 cells overexpressing hEP4; PGE2 agonist 20 nM; graded per Table 21; read-out: IC50 (nM) EP4 cAMP
T2 construct: expressed in transfected cells; host or cells: HEK293
Protocol: as §1, with “overexpressing hEP4” for “overexpressing hEP2”, “(HBSS (Gibco™” for “(HBSS (Gibco™,”, “hours.” for “hours. The”, “harboring hEP4” for “harboring hEP2”
as §2, with “plate (Corning®,” for “plate (Corning™,”, “solution: 100” for “solution: 1”, “of 20 nM” for “of 400 pM”, “PGE2 (20 nM” for “PGE2 (400 pM”, “for 18.5” for “for 12”
as §3, with “compared” for “relative”, “slope” for “slopes”

T1 sequence (P43116 whole entry): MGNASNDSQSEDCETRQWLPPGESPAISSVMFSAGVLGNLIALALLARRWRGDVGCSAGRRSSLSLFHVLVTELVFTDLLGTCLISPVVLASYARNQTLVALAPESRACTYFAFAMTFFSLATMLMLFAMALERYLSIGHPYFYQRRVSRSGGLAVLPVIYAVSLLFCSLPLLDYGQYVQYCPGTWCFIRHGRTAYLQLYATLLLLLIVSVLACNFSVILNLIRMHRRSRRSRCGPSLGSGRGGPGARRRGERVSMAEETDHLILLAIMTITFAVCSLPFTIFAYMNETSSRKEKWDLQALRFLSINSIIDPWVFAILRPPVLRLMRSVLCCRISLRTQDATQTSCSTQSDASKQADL
T2 sequence (P35408 whole entry): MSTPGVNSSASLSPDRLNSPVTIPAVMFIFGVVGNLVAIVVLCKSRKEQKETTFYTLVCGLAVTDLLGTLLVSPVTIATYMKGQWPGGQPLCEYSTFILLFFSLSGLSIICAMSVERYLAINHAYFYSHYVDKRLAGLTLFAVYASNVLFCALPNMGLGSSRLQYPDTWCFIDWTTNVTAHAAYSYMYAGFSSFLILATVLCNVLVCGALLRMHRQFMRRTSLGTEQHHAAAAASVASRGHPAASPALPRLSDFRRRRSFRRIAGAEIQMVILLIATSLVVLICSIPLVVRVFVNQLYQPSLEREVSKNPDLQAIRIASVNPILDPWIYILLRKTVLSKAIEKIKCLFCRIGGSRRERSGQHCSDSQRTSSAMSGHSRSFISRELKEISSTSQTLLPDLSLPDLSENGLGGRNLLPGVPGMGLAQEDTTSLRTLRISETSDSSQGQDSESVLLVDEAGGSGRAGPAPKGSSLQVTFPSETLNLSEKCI

Structure (SMILES)	IC50 (hEP2) [nM]	IC50 (hEP4) [nM]
COc1cc(CNC(=O)OC(C)(C)C)cc(-c2ccc(Cc3c(C)sc(C)c3C(=O)NC3CC4(C3)CC(C(=O)O)C4)cc2)c1 (stereo not drawn) [Example 59, 6-(4-((3′-(((tert-butoxycarbonyl)amino)methyl)-5′-methoxy-[1,1′-biphenyl]-4-yl)methyl)-2,5-dimethylthiophene-3-carboxamido)spiro[3.3]heptane-2-carboxylic acid]	> 10000	500 to 5000
Cc1sc(C)c(C(=O)NC2CC3(C2)CC(C(=O)O)C3)c1Cc1ccc(Cl)cc1 (stereo not drawn) [Example 23, 6-(4-(4-chlorobenzyl)-2,5-dimethylthiophene-3-carboxamido)spiro[3.3]heptane-2-carboxylic acid]	> 10000	> 10000
O=C(N[C@H]1C[C@@H](C(=O)O)C1)c1csc2ccn(Cc3ccc(-c4ccccc4)cc3)c12 [Example 84, (1S,3S)-3-(4-([1,1′-biphenyl]-4-ylmethyl)-4H-thieno[3,2-b]pyrrole-3-carboxamido)cyclobutane-1-carboxylic acid]	> 10000	> 10000
Cc1sc(C)c(C(=O)NC2CC3(C2)CC(C(=O)O)C3)c1CCc1ccc(-c2ccccc2)cc1 (stereo not drawn) [Example 6, 6-(4-(2-([1,1′-biphenyl]-4-yl)ethyl)-2,5-dimethylthiophene-3-carboxamido)spiro[3.3]heptane-2-carboxylic acid]	> 10000	> 10000
Cn1cc(-c2ccc(Cn3ccc4scc(C(=O)NC5CC6(C5)CC(C(=O)O)C6)c43)cc2)cn1 (stereo not drawn) [Example 102, 6-(4-(4-(1-methyl-1H-pyrazol-4-yl)benzyl)-4H-thieno[3,2-b]pyrrole-3-carboxamido)spiro[3.3]heptane-2-carboxylic acid]	> 10000	< 500
Cc1sc(C)c(C(O)c2ccc(-c3ccccc3)cc2)c1C(=O)NC1CC2(C1)CC(C(=O)O)C2 (stereo not drawn) [Example 11, 6-(4-([1,1′-biphenyl]-4-yl(hydroxy)methyl)-2,5-dimethylthiophene-3-carboxamido)spiro[3.3]heptane-2-carboxylic acid]	> 10000	< 500
Cc1sc(C)c(C(=O)N(C)C2CC3(CC(C(=O)O)C3)C2)c1Cc1ccc(-c2ccccc2)cc1 (stereo not drawn) [Example 73, 6-(4-([1,1′-biphenyl]-4-ylmethyl)-N,2,5-trimethylthiophene-3-carboxamido)spiro[3.3]heptane-2-carboxylic acid]	> 10000	> 10000
Cc1sc(C)c(C(=O)NC2CC3(C2)CC(C(=O)O)C3)c1Cn1cc(-c2ccccc2)cn1 (stereo not drawn) [Example 78, 6-(2,5-dimethyl-4-((4-phenyl-1H-pyrazol-1-yl)methyl)thiophene-3-carboxamido)spiro[3.3]heptane-2-carboxylic acid]	> 10000	5000 to 10000
Cc1sc(C)c(C(=O)NC2CC3(C2)CC(C(=O)O)C3)c1Cc1ccc(-c2ccc(OC(F)(F)F)cc2)cc1 (stereo not drawn) [Example 42, 6-(2,5-dimethyl-4-((4′-(trifluoromethoxy)-[1,1′-biphenyl]-4-yl)methyl)thiophene-3-carboxamido)spiro[3.3]heptane-2-carboxylic acid]	> 10000	500 to 5000
Cc1sc(C)c(C(=O)NC2CC3(C2)CC(C(=O)O)C3)c1Cc1ccc(-c2cc(F)cc(CN)c2)cc1 (stereo not drawn) [Example 64, 6-(4-((3′-(aminomethyl)-5′-fluoro-[1,1′-biphenyl]-4-yl)methyl)-2,5-dimethylthiophene-3-carboxamido)spiro[3.3]heptane-2-carboxylic acid]	> 10000	500 to 5000

Other lines, results leading:

IC50 (hEP2) [nM]	IC50 (hEP4) [nM]	Structure (SMILES)
< 500	< 500	O=C(NC1CC2(C1)CC(C(=O)O)C2)c1csc2ccn(Cc3ccc(-c4cccc(F)c4)cc3)c12 (stereo not drawn) [Example 92, 6-(4-((3′-fluoro-[1,1′-biphenyl]-4-yl)methyl)-4H-thieno[3,2-b]pyrrole-3-carboxamido)spiro[3.3]heptane-2-carboxylic acid]
> 10000	500 to 5000	O=C(NC1CC2(C1)CC(C(=O)O)C2)c1c(Br)sc(Br)c1Cc1ccc(-c2ccccc2)cc1 (stereo not drawn) [Example 16, 6-(4-([1,1′-biphenyl]-4-ylmethyl)-2,5-dibromothiophene-3-carboxamido)spiro[3.3]heptane-2-carboxylic acid]
5000 to 10000	< 500	Cc1sc(C)c(C(=O)NC2CC3(C2)CC(C(=O)O)C3)c1Cc1ccc(-c2cc(F)cc(F)c2)cc1 (stereo not drawn) [Example 52, 6-(4-((3′,5′-difluoro-[1,1′-biphenyl]-4-yl)methyl)-2,5-dimethylthiophene-3-carboxamido)spiro[3.3]heptane-2-carboxylic acid]
> 10000	500 to 5000	COc1cc(-c2ccc(Cc3c(C)sc(C)c3C(=O)NC3CC4(C3)CC(C(=O)O)C4)cc2)cc(C2(O)COC2)c1 (stereo not drawn) [Example 61, 6-(4-((3′-(3-hydroxyoxetane-3-yl)-5′-methoxy-[1,1′-biphenyl]-4-yl)methyl)-2,5-dimethylthiophene-3-carboxamido)spiro[3.3]heptane-2-carboxylic acid]
> 10000	500 to 5000	Cc1sc2ccn(CC#Cc3ccccc3)c2c1C(=O)NC1CC2(C1)CC(C(=O)O)C2 (stereo not drawn) [Example 96, 6-(2-methyl-4-(3-phenylprop-2-yn-1-yl)-4H-thieno[3,2-b]pyrrole-3-carboxamido)spiro[3.3]heptane-2-carboxylic acid]
500 to 5000	< 500	COc1cccc(-c2ccc(Cc3c(C)sc(C)c3C(=O)NC3CC4(C3)CC(C(=O)O)C4)cc2)c1 (stereo not drawn) [Example 29, 6-(4-((3′-methoxy-[1,1′-biphenyl]-4-yl)methyl)-2,5-dimethylthiophene-3-carboxamido)spiro[3.3]heptane-2-carboxylic acid]
< 500	< 500	COc1cccc(-c2ccc(Cn3ccc4scc(C(=O)NC5CC6(C5)CC(C(=O)O)C6)c43)cc2)c1 (stereo not drawn) [Example 85, 6-(4-((3′-methoxy-[1,1′-biphenyl]-4-yl)methyl)-4H-thieno[3,2-b]pyrrole-3-carboxamido)spiro[3.3]heptane-2-carboxylic acid]
> 10000	500 to 5000	COc1ccccc1-c1ccc(Cc2c(C)sc(C)c2C(=O)NC2CC3(C2)CC(C(=O)O)C3)cc1 (stereo not drawn) [Example 24, 6-(4-((2′-methoxy-[1,1′-biphenyl]-4-yl)methyl)-2,5-dimethylthiophene-3-carboxamido)spiro[3.3] heptane-2-carboxylic acid]
> 10000	> 10000	O=C(NC1CC2(C1)CC(C(=O)O)C2)c1csc(-c2ccccc2)c1Cc1ccc(-c2ccccc2)cc1 (stereo not drawn) [Example 21, 6-(4-([1,1′-biphenyl]-4-ylmethyl)-5-phenylthiophene-3-carboxamido)spiro[3.3] heptane-2-carboxylic acid]
< 500	< 500	COc1cc(F)cc(-c2ccc(Cn3ccc4scc(C(=O)NC5CC6(C5)CC(C(=O)O)C6)c43)cc2)c1 (stereo not drawn) [Example 97, 6-4-((3′-fluoro-5′-methoxy[1,1′-biphenyl-4-yl)methyl)-4H-thieno[3,2-b]pyrrole-3-carboxamido)spiro[3.3]heptane-2-carboxylic acid]
500 to 5000	500 to 5000	O=C(NC1CC2(C1)CC(C(=O)O)C2)c1csc2ccn(Cc3ccc(C(F)(F)F)cc3)c12 (stereo not drawn) [Example 90, 6-(4-(4-(trifluoromethyl)benzyl)-4H-thieno[3,2-b]pyrrole-3-carboxamido)spiro[3.3]heptane-2-carboxylic acid]
